This is an account of results in BindingDB's records for doi:10.1021/jm991098z (Friedrich-Alexander University, 2000).

Assay [1] has as its target T1, D(2) dopamine receptor (Homo sapiens, UniProt P14416). Briefly: Binding Affinity was tested on relative proportion of High Affinity Site of Dopamine receptor D2L.
Another assay addresses T2, D(4) dopamine receptor (Homo sapiens, UniProt P21917).
T2 sequence (P21917 whole entry): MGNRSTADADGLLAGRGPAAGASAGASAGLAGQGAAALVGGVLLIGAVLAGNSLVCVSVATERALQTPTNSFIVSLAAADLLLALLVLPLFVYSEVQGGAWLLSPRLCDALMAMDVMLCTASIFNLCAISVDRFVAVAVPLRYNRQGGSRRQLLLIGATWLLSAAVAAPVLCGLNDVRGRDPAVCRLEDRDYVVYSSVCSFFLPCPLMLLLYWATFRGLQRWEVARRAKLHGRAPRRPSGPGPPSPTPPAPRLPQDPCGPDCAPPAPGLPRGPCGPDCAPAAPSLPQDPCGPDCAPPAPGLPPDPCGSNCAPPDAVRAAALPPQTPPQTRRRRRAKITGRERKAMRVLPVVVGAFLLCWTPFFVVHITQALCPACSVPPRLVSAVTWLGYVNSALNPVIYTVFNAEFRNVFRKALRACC
Briefly: Binding Affinity was tested on relative proportion of High Affinity Site of Dopamine receptor D4.4.

The target of assay [2] is T1, D(2) dopamine receptor. Nature of the assay: Binding Affinity was tested on relative proportion of High Affinity Site of Dopamine receptor D2S.
Assay [3] can be described thus: Binding Affinity was tested on relative proportion of High Affinity Site of Dopamine receptor D3.

Structures are written as SMILES.

T1 sequence (P14416 whole entry): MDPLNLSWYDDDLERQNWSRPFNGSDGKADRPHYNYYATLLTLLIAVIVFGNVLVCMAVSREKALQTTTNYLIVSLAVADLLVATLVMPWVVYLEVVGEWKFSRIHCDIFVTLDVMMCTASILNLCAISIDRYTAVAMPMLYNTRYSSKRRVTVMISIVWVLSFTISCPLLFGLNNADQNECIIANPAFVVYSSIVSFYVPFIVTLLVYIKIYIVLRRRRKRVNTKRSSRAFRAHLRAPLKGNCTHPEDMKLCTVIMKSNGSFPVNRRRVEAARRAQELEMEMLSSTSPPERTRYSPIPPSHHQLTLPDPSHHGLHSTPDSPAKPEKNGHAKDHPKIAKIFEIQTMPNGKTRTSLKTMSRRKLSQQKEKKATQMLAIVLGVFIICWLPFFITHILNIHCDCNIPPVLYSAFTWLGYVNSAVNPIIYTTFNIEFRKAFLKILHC

For the compound `C#CC1=CCC(N(CCC)CCC)CC1` (configuration not stated) [(4-Ethynyl-cyclohex-3-enyl)-dipropyl-amine], the RH at D(2) dopamine receptor [1] came to 38%; on D(4) dopamine receptor, 38%; at D(2) dopamine receptor [2], 34%.

As to `CCCN(CCC)C1CC=C(C#C[Si](C)(C)C)CC1` (configuration not stated) [Dipropyl-(4-trimethylsilanylethynyl-cyclohex-3-enyl)-amine], the Ki in assay [3] was 0.023 µM. Further, the RH stood at 16% on D(2) dopamine receptor [1], 54% on D(4) dopamine receptor and 17% at D(2) dopamine receptor [2].
